According to ChEMBL document CHEMBL2074024, “Reversal of P-glycoprotein-mediated multidrug resistance by diallyl sulfide in K562 leukemic cells and in mouse liver” (Carcinogenesis, 2004):

Tests used:
[1] = biological target: T1, ATP-dependent translocase ABCB1 (Homo sapiens, UniProt P08183); assay: TP_TRANSPORTER: drug resistance (vinblastine) in K562/R10 cells; assay type: functional, cell-based
[2] = biological target: T1, ATP-dependent translocase ABCB1; assay: TP_TRANSPORTER: increase in Doxorubicin intracellular accumulation (Doxorubicin: […]) in K562/R10 cells; assay type: functional, cell-based

T1 sequence (P08183 whole entry): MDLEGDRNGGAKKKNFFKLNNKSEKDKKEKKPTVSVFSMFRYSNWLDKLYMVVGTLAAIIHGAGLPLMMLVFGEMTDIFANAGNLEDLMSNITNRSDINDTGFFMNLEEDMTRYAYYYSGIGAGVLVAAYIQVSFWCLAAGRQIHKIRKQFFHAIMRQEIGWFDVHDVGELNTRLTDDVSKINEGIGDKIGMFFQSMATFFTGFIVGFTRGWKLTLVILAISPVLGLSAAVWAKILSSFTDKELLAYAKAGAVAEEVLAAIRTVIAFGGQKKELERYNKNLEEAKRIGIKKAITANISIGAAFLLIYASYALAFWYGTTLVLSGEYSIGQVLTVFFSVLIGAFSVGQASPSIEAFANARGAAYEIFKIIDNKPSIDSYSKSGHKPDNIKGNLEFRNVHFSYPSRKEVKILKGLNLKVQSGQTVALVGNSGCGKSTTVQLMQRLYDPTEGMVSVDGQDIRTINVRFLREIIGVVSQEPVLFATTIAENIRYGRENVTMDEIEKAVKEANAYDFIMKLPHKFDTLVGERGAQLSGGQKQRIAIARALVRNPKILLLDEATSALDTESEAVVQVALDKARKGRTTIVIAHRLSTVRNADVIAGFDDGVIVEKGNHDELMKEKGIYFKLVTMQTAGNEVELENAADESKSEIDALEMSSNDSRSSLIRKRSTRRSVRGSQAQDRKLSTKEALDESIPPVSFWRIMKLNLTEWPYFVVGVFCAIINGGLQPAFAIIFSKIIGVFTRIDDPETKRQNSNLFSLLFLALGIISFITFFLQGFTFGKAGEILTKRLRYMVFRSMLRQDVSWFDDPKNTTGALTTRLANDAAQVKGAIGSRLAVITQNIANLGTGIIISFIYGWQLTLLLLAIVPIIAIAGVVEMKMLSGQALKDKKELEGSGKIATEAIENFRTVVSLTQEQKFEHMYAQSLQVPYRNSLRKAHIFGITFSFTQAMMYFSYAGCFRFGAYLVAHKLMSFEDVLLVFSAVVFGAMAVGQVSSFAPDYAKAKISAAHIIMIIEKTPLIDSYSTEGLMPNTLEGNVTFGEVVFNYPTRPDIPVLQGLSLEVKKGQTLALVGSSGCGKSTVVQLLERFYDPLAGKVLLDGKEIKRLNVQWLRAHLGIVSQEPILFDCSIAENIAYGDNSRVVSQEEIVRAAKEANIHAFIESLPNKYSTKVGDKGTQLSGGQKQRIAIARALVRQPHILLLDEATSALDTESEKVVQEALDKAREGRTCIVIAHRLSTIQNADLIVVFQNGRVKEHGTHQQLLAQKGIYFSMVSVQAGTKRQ

SMILES: C=CCSCC=C [DIALLYL SULFIDE]
- Activity [1]: inhibitor [+]
- Activity [2]: inhibitor [+]
